Structures can show the parent of a compound that is named as a salt. Where two headings read alike, the source gives them in different places.
Key:
CDK1:Cyclin-B = target: T1, CDK1:Cyclin-B (Homo sapiens, UniProt P06493); test: CDK1 Screening Assay (33P-ATP FlashPlate); type: biochemical; details: 10 μM ATP; >10 or >100 = less than 50% inhibition at highest concentration tested
T1 construct: purchased New England Biolabs, Beverly, Mass; 6020; host or cells: insect cells
Method: A kinase reaction mixture was prepared containing 50 mM Tris-HCl pH=8, 10 mM MgCl2, 0.1 mM Na3PO4, 1 mM DTT, 10 μM ATP, 0.025 μM biotinylated histone-H1 peptide substrate and 0.2 μCuries per well ^33P-γ-ATP (2000-3000 Ci/mmol). 70 μL of the kinase reaction mixture was dispensed into each well of a streptavidin coated FlashPlate™ (Cat. # SMP103, NEN, Boston, Mass.). Then 1 μL of test compound stock in 100% DMSO was added to the wells resulting in a final concentration of 1% DMSO in the reaction with a 100 μl final reaction volume.
Next, CDK1:Cyclin-B protein was diluted in 50 mM Tris-HCl pH=8.0, 0.1% BSA at a concentration of 1 ng per μL and 30 μL (30 ng enzyme per test well) was added to each well to initiate the reaction. The reaction was incubated for one hour at 30° C. At the end of the 1 h incubation, the reaction was terminated by aspirating the mixture from the plate and washing the wells twice with PBS containing 100 mM EDTA. The histone-H1 biotinylated peptide substrate became immobilized on the Flashplate™ and the incorporation of ^33P-γ-ATP was measured by reading the plate on a scintillation counter. Inhibition of the enzymatic activity of CDK1 was measured by observing a reduced amount of ^33P-γ-ATP incorporated into the immobilized peptide.
(§1) VEGF-R (vascular endothelial growth factor receptor-2) is a fusion protein containing a polyhistidine tag at the N-terminus followed by amino acids 786-1343 of the rat VEGF-R2 kinase domain (GenBank Accession #U93306). CDK1 (cyclin dependent kinase 1) was isolated from insect cells expressing both the human CDK1 catalytic subunit and its positive regulatory subunit cyclin B (New England Biolabs, Beverly, Mass., Cat. # 6020). CDK2 in complex with cyclin A is commercially available (Upstate Biotech, Lake Placid, N.Y.). The HER2 (human epidermal growth factor receptor-2) construct contains a polyhistidine tag at the N-terminus followed by 24 additional amino acids and begins at amino acid 676 followed by the remainder of the HER2 cytoplasmic domain.

VEGF-R2 kinase = target: T2, VEGF-R2 kinase (Rattus norvegicus, UniProt O08775); test: VEGF-R2 Kinase Screening Assay; type: biochemical; details: 10 μM ATP; rat VEGF-R2 kinase domain; read-out: IC50 (μM) VEGFR
T2 construct: 6xHis (polyhistidine) (N)
T2 sequence (O08775 786-1343): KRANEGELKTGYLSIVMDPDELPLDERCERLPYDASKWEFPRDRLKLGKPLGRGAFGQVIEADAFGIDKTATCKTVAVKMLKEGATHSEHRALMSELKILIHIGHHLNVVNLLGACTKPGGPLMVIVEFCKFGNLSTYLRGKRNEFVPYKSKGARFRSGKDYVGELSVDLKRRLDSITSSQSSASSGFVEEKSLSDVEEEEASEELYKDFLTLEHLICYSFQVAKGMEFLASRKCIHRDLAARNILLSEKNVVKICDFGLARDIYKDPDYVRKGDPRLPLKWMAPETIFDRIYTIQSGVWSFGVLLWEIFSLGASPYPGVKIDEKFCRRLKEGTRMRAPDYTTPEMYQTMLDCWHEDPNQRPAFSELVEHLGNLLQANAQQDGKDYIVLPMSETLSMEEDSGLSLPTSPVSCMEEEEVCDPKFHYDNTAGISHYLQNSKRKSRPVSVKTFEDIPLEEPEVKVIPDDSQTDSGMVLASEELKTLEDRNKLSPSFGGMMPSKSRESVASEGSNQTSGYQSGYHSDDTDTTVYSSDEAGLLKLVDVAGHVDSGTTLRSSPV
Method: A kinase reaction mixture was prepared containing 50 mM Tris-HCl pH=8, 10 mM MgCl2, 0.1 mM Na3PO4, 1 mM DTT, 10 μM ATP, 0.025 μM biotinylated peptide substrate and 0.8 μCuries per well ^33P-γ-ATP (2000-3000 Ci/mmol). 70 μL of the kinase reaction mixture was dispensed into each well of a streptavidin coated FlashPlate™ (Cat. # SMP103, NEN, Boston, Mass.). Then 1 μL of test compound stock in 100% DMSO was added to the wells resulting in a final concentration of 1% DMSO in the reaction with a 100 μL final reaction volume. Next, soluble rat tyrosine kinase containing an N-terminal 6×HIS tag was diluted in 50 mM Tris-HCl pH=8.0, 0.1% BSA at a concentration of 5 ng per μL and 30 μL (150 ng enzyme per test well) was added to each well to initiate the reaction. The reaction was incubated for one hour at 30° C. At the end of the 1 h incubation, the reaction was terminated by aspirating the reaction mixture from the plate and washing the wells twice with PBS containing 100 mM EDTA. The PLC1 biotinylated peptide substrate became immobilized on the Flashplate™ and the incorporation of ^33P-γ-ATP was measured by reading the plate on a scintillation counter. Inhibition of the enzymatic activity of the VEGF-R2 kinase was measured by observing a reduced amount of ^33P-γ-ATP incorporated into the immobilized peptide.
as §1

A375 malignant melanoma = test: Inhibition of cell proliferation (14C-thymidine incorporation), A375; type: cell-based, human
Method: The ability of a test compound to inhibit the proliferation of cell growth was determined by measuring incorporation of ^14C-labelled thymidine into newly synthesized DNA within the cells. This method was used on cell lines derived from carcinomas originating from several tissues such as HeLa cervical adenocarcinoma (American Type Culture Collection (ATCC), Virginia, Cat. #CCL-2), A375 malignant melanoma (ATCC CRL-1619), and HCT-116 colon carcinoma (CCL-247). In this way the effect of a compound on cell growth of cells with many different phenotypes can be determined. Cells were trypsinized and counted and 3000-8000 cells were added to each well of a 96-well CytoStar tissue culture treated scintillating microplate (Amersham #RPNQ0160) in complete medium in a volume of 100 μl. Cells were incubated for 24 hours in complete medium at 37° C. in an atmosphere containing 5% CO2.
Next, 1 μl of test compound in 100% DMSO was added to the wells of the plate. DMSO only was added to control wells. Cells were incubated for 24 more hours in complete medium at 37° C. in an atmosphere containing 5% CO2. Methyl ^14C-thymidine 56 mCi/mmol (NEN #NEC568 or Amersham #CFA532) was diluted in complete medium and 0.2 uCi/well was added to each well of the CytoStar plate in a volume of 20 ul. The plate was incubated for 24 hours at 37° C. plus 5% CO2 in drug plus ^14C-thymidine. The contents of the plate were discarded into a ^14C radioactive waste container by inverting the plate and the plate was washed twice with 200 μl PBS.
200 μl of PBS was added to each well. The top of the plate was sealed with a transparent plate sealer and a white plate backing sealer (Packard #6005199) was applied to the bottom of the plate. The degree of methyl ^14C-thymidine incorporation was quantified on a Packard Top Count.

T1 sequence (P06493 whole entry): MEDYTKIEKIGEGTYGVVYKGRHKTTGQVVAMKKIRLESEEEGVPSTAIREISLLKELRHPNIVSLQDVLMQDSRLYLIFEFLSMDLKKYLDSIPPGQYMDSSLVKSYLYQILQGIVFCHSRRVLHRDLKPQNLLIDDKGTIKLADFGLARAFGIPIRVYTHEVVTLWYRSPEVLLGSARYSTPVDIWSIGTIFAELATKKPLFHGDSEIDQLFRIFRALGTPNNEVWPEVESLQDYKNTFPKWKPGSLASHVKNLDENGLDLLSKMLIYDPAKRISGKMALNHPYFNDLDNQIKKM
T1 sequence (P14635 whole entry partner): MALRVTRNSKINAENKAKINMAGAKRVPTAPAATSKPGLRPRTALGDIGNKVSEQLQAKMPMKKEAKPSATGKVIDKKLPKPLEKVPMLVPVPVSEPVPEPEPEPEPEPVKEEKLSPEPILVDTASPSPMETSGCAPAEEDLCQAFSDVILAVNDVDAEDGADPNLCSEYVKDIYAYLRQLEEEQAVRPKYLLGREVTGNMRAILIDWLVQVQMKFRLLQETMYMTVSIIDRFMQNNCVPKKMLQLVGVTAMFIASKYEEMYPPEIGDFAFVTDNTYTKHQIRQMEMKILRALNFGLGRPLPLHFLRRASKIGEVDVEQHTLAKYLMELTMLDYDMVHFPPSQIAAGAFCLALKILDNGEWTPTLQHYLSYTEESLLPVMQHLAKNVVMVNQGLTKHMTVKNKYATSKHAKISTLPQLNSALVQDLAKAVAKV

Molecule	IC50 (CDK1:Cyclin-B) [µM]	IC50 (VEGF-R2 kinase) [µM]	IC50 (A375 malignant melanoma) [µM]	IC50 (A375 malignant melanoma; Homo sapiens, A-375) [µM]
4-[5-amino-1-(2,6-difluoro-benzoyl)-1H-[1,2,4]triazol-3-ylamino]-N-propionyl-benzenesulfonamide [Compound 20]	1.82	1	> 10	–
Nc1nc(Nc2ccc(S(=O)(=O)NC(=O)CCC(=O)O)cc2)nn1C(=O)c1c(F)cccc1F [Compound 1, 4-{4-[5-amino-1-(2,6-difluoro-benzoyl)-1H-[1,2,4]triazol-3-ylamino]-benzenesulfonylamino}-4-oxo-butyric acid]	0.49	1.66	–	20.3
NCC(=O)NS(=O)(=O)c1ccc(Nc2nc(N)n(C(=O)c3c(F)cccc3F)n2)cc1 [Compound 2, N-(2-amino-acetyl)-4-[5-amino-1-(2,6-difluoro-benzoyl)-1H-[1,2,4]triazol-3-ylamino]-benzenesulfonamide]	1.07	1.97	–	9.45
COCCOCC(=O)NS(=O)(=O)c1ccc(Nc2nc(N)n(C(=O)c3c(F)cccc3F)n2)cc1 [Compound 3, 4-[5-amino-1-(2,6-difluoro-benzoyl)-1H-[1,2,4]triazol-3-ylamino]-N-[2-(2-methoxy-ethoxy)-acetyl]-benzenesulfonamide]	1.66	2.56	–	> 100
Nc1nc(Nc2ccc(S(=O)(=O)NC(=O)Cn3cnnn3)cc2)nn1C(=O)c1c(F)cccc1F [Compound 4, 4-[5-amino-1-(2,6-difluoro-benzoyl)-1H-[1,2,4]triazol-3-ylamino]-N-(2-tetrazol-1-yl-acetyl)-benzenesulfonamide]	5.39	2.34	–	> 100
CN1CCN(CCC(=O)NS(=O)(=O)c2ccc(Nc3nc(N)n(C(=O)c4c(F)cccc4F)n3)cc2)CC1 [Compound 5, 4-[5-amino-1-(2,6-difluoro-benzoyl)-1H-[1,2,4]triazol-3-ylamino]-N-[3-(4-methyl-piperazin-1-yl)-propionyl]-benzenesulfonamide]	1.34	1.88	–	> 100
CN(C)CC(=O)NS(=O)(=O)c1ccc(Nc2nc(N)n(C(=O)c3c(F)cccc3F)n2)cc1 [Compound 6, 4-[5-amino-1-(2,6-difluoro-benzoyl)-1H-[1,2,4]triazol-3-ylamino]-N-(2-dimethylamino-acetyl)-benzenesulfonamide]	2.13	1.22	–	> 100
Nc1nc(Nc2ccc(S(=O)(=O)NC(=O)CCN3CCOCC3)cc2)nn1C(=O)c1c(F)cccc1F [Compound 7, 4-[5-amino-1-(2,6-difluoro-benzoyl)-1H-[1,2,4]triazol-3-ylamino]-N-(3-morpholin-4-yl-propionyl)-benzenesulfonamide]	1.55	1.65	–	> 100
CCOC(=O)CCC(=O)NS(=O)(=O)c1ccc(Nc2nc(N)n(C(=O)c3c(F)cccc3F)n2)cc1 [Compound 8, 4-{4-[5-amino-1-(2,6-difluoro-benzoyl)-1H-[1,2,4]triazol-3-ylamino]-benzenesulfonylamino}-4-oxo-butyric acid ethyl ester]	0.47	0.47	–	> 10
COCCOCCOCC(=O)NS(=O)(=O)c1ccc(Nc2nc(N)n(C(=O)c3c(F)cccc3F)n2)cc1 [Compound 9, 4-[5-amino-1-(2,6-difluoro-benzoyl)-1H-[1,2,4]triazol-3-ylamino]-N-{2-[2-(2-methoxy-ethoxy)-ethoxy]-acetyl}-benzenesulfonamide]	4.69	≥ 100	–	> 10
COCCOCCOCC(=O)Nc1nc(Nc2ccc(S(N)(=O)=O)cc2)nn1C(=O)c1c(F)cccc1F [Compound 10, N-[2-(2,6-difluoro-benzoyl)-5-(4-sulfamoyl-phenylamino)-2H-[1,2,4]triazol-3-yl]-2-[2-(2-methoxy-ethoxy)-ethoxy]-acetamide]	2.55	1.76	–	> 100
Nc1nc(Nc2ccc(S(=O)(=O)NC(=O)CCCC(=O)O)cc2)nn1C(=O)c1c(F)cccc1F [Compound 11, 5-{4-[5-amino-1-(2,6-difluoro-benzoyl)-1H-[1,2,4]triazol-3-ylamino]-benzenesulfonylamino}-5-oxo-pentanoic acid]	12.4	2.77	–	> 100
Nc1nc(Nc2ccc(S(=O)(=O)NC(=O)COCCOCCOCC(=O)O)cc2)nn1C(=O)c1c(F)cccc1F [Compound 12, {2-[2-(2-{4-[5-amino-1-(2,6-difluoro-benzoyl)-1H-[1,2,4]triazol-3-ylamino]-benzenesulfonylamino}-2-oxo-ethoxy)-ethoxy]-ethoxy}-acetic acid.2TFA salt]	0.76	16.8	–	> 10
Nc1nc(Nc2ccc(S(=O)(=O)NC(=O)[C@@H](N)CO)cc2)nn1C(=O)c1c(F)cccc1F [Compound 13, 4-[5-amino-1-(2,6-difluoro-benzoyl)-1H-[1,2,4]triazol-3-ylamino]-N—((S)-2-amino-3-hydroxy-propionyl)-benzenesulfonamide]	1.41	1.54	–	> 10
C[C@@H](N)C(=O)NS(=O)(=O)c1ccc(Nc2nc(N)n(C(=O)c3c(F)cccc3F)n2)cc1 [Compound 14, 4-[5-amino-1-(2,6-difluoro-benzoyl)-1H-[1,2,4]triazol-3-ylamino]-N—((R)-2-amino-propionyl)-benzenesulfonamide]	0.74	0.89	–	71.1
C[C@H](N)C(=O)N[C@@H](C)C(=O)NS(=O)(=O)c1ccc(Nc2nc(N)n(C(=O)c3c(F)cccc3F)n2)cc1.O=C(O)C(F)(F)F.O=C(O)C(F)(F)F.O=C(O)C(F)(F)F [Compound 15, (S)-2-amino-N—((S)-2-{4-[5-amino-1-(2,6-difluoro-benzoyl)-1H-[1,2,4]triazol-3-ylamino]-benzenesulfonylamino}-1-methyl-2-oxo-ethyl)-propionamide 3 TFA salt]	1.36	2.03	–	12.1
Nc1nc(Nc2ccc(S(=O)(=O)NC(=O)[C@@H]3CCCN3)cc2)nn1C(=O)c1c(F)cccc1F [Compound 16, 4-[5-amino-1-(2,6-difluoro-benzoyl)-1H-[1,2,4]triazol-3-ylamino]-N—((S)-pyrrolidine-2-carbonyl)-benzenesulfonamide]	0.23	7.31	–	26.8

Source: patent publication US7888380B2, “1,2,4-Triazolylaminoaryl (heteroaryl) sulfonamide derivatives” (Janssen Pharmaceutica, N.V., priority 2004, dated 2011)
